Several values for one entry are separate records, joined by “and”; a condition that tells them apart may be missing. Equal entries are not always repeated.
Test system: adult subjects with Major Depressive Disorder
Assay: Phase 3 open-label 1-year study: HAM-D total score, response and remission
Format: in vivo, human
Text: Secondary Objective: To assess the need for re-treatment with Compound (1) following initial treatment in adults with MDD currently experiencing an MDE over a 1-year period, and to assess the response of initial treatment and re-treatment(s) with Compound (1) following an initial 2-week treatment period in adults with MDD currently experiencing an MDE over a 1-year period.
Secondary Endpoints: The need for re-treatment with Compound (1) as assessed by: time to first re-treatment (Kaplan-Meier curves), number of subjects achieving the requirements for re-treatment, number of re-treatment cycles for each subject, the response of initial treatment and/or re-treatment as assessed by: change from baseline in the 17-item Hamilton Rating Scale for Depression (HAM-D) total score at the end of each 14-day treatment (initial and/or re-treatment) period, HAM-D response at the end of each 14-day treatment (initial and/or re-treatment) period, defined as a ≥50% reduction in HAM-D score from baseline, HAM-D remission at the end of each 14-day treatment (initial and/or re-treatment) period, defined as HAM-D total score≤7, Clinical Global Impression-Improvement (CGI-I) response, defined as “much improved” or “very much improved”, at the end of each 14-day treatment (initial and/or re-treatment) period, change from baseline in Clinical Global Impression-Severity (CGI-S) score at the end of each 14-day treatment (initial and/or re-treatment) period.
Study Population: Subjects were 18-75 years old, diagnosed with major depressive disorder (MDD) with a MADRS total score of ≥28 and a HAM-D total score of ≥20 at Screening and Day 1 (prior to dosing).
Treatment Groups: The 30 mg and 50 mg dose groups were separated by time of enrollment. The study is comprised of two cohorts: one with Compound (1) 30 mg as a starting dose (30 mg Cohort: n=725), an initial cohort with Compound (1) 50 mg as a starting dose (50 mg Cohort: n=199). A patient receiving Compound (1) 30 mg could be dose reduced to 20 mg and patients receiving Compound (1) 50 mg could be dose reduced to 40 mg (based on tolerability). In all cohorts, Compound (1) is self-administered by patients as an oral therapy once nightly with food for 14 days.
Eligible subjects were given Compound (1)—to be taken at home in the evening with meal.
The cohorts pertaining to the different doses that the subjects received were defined as following: • 50 mg cohort: This cohort includes subjects who have initiated treatment with 50 mg and received re-treatment with 50 mg only. • 30 mg cohort: This cohort includes subjects who have initiated treatment with 30 mg regardless of the dose they have received in re-treatments. • Low dose cohort: This cohort includes subjects who have initiated treatment with 30 mg and received re-treatment with 30 mg only. • Dose switch cohort: This cohort includes subjects who have received initial treatment with 30 mg and at least one subsequent re-treatment with 50 mg. • Study Period X: starts on the date of the first dose of Compound (1) in cycle X and goes up to one day prior to the first dose of the next cycle. In some embodiments, X is any number from 1 to 5. • Treatment Period X: starts on the date of the first dose of Compound (1) in cycle X and goes up to one day after the last dose in cycle X. In some embodiments, X is any number from 1 to 5. • Treatment Cycle X: starts on the date of the first dose of Compound (1) in cycle X and goes up to 14 days after the last dose in cycle X. The treatment cycles may be denoted as C1-C5. • Observation period X: starts the day after Treatment Cycle X ends and goes up to one day prior to the start of next treatment cycle. In some embodiments, X is any number from 1 to 5.
Analysis Sets: The safety set was defined as all subjects who were administered study drug. The period-specific safety set includes subjects in the safety set who were administered study drug in the corresponding treatment cycle. […]

[1] = Study Period 1, safety set, 30 mg Cohort (N = 725), Day 126
[2] = Study Period 1, safety set, 50 mg Cohort (N = 199), Day 8
[3] = Study Period 1, safety set, 50 mg Cohort (N = 199), Day 15
[4] = Study Period 1, safety set, 50 mg Cohort (N = 199), Day 28
[5] = Study Period 1, safety set, 50 mg Cohort (N = 199), Day 70
[6] = Study Period 1, safety set, 50 mg Cohort (N = 199), Day 126
[7] = baseline HAM-D score ≥24, Study Period 1, 30 mg Cohort (N = 458), Day 8
[8] = baseline HAM-D score ≥24, Study Period 1, 30 mg Cohort (N = 458), Day 15
[9] = baseline HAM-D score ≥24, Study Period 1, 30 mg Cohort (N = 458), Day 28
[10] = baseline HAM-D score ≥24, Study Period 1, 30 mg Cohort (N = 458), Day 70
[11] = baseline HAM-D score ≥24, Study Period 1, 30 mg Cohort (N = 458), Day 126
[12] = baseline HAM-D score ≥24, Study Period 1, 50 mg Cohort (N = 127), Day 8
[13] = baseline HAM-D score ≥24, Study Period 1, 50 mg Cohort (N = 127), Day 15

SMILES: C[C@@]1(O)CC[C@H]2[C@H](CC[C@@H]3[C@@H]2CC[C@]2(C)[C@@H](C(=O)Cn4cc(C#N)cn4)CC[C@@H]32)C1 [Compound (1), 1-(2-((3R,5R,8R,9R,10S,13S,14S,17S)-3-hydroxy-3,13-dimethylhexadecahydro-1H-cyclopenta[a]phenanthren-17-yl)-2-oxoethyl)-1H-pyrazole-4-carbonitrile]
- HAM-D Response [1]: 144/203 (70.9%)
- HAM-D total score, Mean % CFB ± SD [1]: −62.3 ± 30.36%
- HAM-D total score, Mean CFB ± SD [1]: −15.7 ± 8.07
- HAM-D Remission [2]: 37/193 (19.2%)
- HAM-D Response [2]: 97/193 (50.3%)
- HAM-D total score, Mean % CFB ± SD [2]: −49.2 ± 22.41%
- HAM-D total score, Mean CFB ± SD [2]: −12.3 ± 5.79
- HAM-D total score, Mean % CFB ± SD [3]: −63.6 ± 22.70%
- HAM-D total score, Mean CFB ± SD [3]: −16±6.0 and −16.0±6.04
- HAM-D Remission [4]: 72/191 (37.7%)
- HAM-D Response [4]: 120/191 (62.8%)
- HAM-D total score, Mean % CFB ± SD [4]: −58.3 ± 26.05%
- HAM-D total score, Mean CFB ± SD [4]: −14.6 ± 6.75
- HAM-D Remission [5]: 41/118 (34.7%)
- HAM-D Response [5]: 69/118 (58.5%)
- HAM-D total score, Mean % CFB ± SD [5]: −53.7 ± 28.40%
- HAM-D total score, Mean CFB ± SD [5]: −13.6 ± 7.45
- HAM-D Remission [6]: 19/30 (63.3%)
- HAM-D Response [6]: 22/30 (73.3%)
- HAM-D total score, Mean % CFB ± SD [6]: −65.2 ± 33.96%
- HAM-D total score, Mean CFB ± SD [6]: −16.3 ± 9.06
- HAM-D Remission [7]: 70/446 (15.7%)
- HAM-D Response [7]: 192/446 (43.0%)
- HAM-D total score, Mean % CFB ± SD [7]: −43.3 ± 25.63%
- HAM-D total score, Mean CFB ± SD [7]: −12.0 ± 7.17
- HAM-D Remission [8]: 164 (37.9%) and 164/433 (37.9%)
- HAM-D Response [8]: 319 (73.7%) and 319/433 (73.7%)
- HAM-D total score, Mean % CFB ± SD [8]: −60.9 ± 25.50%
- HAM-D total score, Mean CFB ± SD [8]: −16.9 ± 7.34
- HAM-D Remission [9]: 132/431 (30.6%)
- HAM-D Response [9]: 250/431 (58.0%)
- HAM-D total score, Mean % CFB ± SD [9]: −53.9 ± 28.59%
- HAM-D total score, Mean CFB ± SD [9]: −15.0 ± 8.27
- HAM-D Remission [10]: 70/247 (28.3%)
- HAM-D Response [10]: 125/247 (50.6%)
- HAM-D total score, Mean % CFB ± SD [10]: −49.2 ± 32.86%
- HAM-D total score, Mean CFB ± SD [10]: −13.8 ± 9.39
- HAM-D Remission [11]: 58/120 (48.3%)
- HAM-D Response [11]: 90/120 (75.0%)
- HAM-D total score, Mean % CFB ± SD [11]: −66.0 ± 28.29%
- HAM-D total score, Mean CFB ± SD [11]: −18.2 ± 7.88
- HAM-D Remission [12]: 18/122 (14.8%)
- HAM-D Response [12]: 61/122 (50.0%)
- HAM-D total score, Mean % CFB ± SD [12]: −49.3 ± 21.32%
- HAM-D total score, Mean CFB ± SD [12]: −13.3 ± 5.87
- HAM-D Remission [13]: 44 (37.3%) and 44/118 (37.3%)
- HAM-D Response [13]: 94 (79.7%) and 94/118 (79.7%)
- HAM-D total score, Mean % CFB ± SD [13]: −64.1 ± 21.73%
- HAM-D total score, Mean CFB ± SD [13]: −17.4 ± 6.05
- HAM-D Remission (baseline HAM-D score ≥24, Study Period 1, 50 mg Cohort (N = 127), Day 28): 41/120 (34.2%)

— patent US20240245711A1, “A 19-NOR C3,3-DISUBSTITUTED C21-N-PYRAZOLYL STEROID FOR THE TREATMENT OF MAJOR DEPRESSIVE DISORDER” (Sage Therapeutics, Inc., priority 2021, published 2024)
